The target in the experiment is BTK (Homo sapiens, UniProt Q06187). Description: biochemical. Conditions: read-out: BTK inhibition (%), 0.75 uM BTK, […] probe 3l, 15 min preincubation.

In general, inhibition refers to the change of the read-out against control, counted positive when it falls.

Sequence of BTK (Q06187 402-655 limits assumed): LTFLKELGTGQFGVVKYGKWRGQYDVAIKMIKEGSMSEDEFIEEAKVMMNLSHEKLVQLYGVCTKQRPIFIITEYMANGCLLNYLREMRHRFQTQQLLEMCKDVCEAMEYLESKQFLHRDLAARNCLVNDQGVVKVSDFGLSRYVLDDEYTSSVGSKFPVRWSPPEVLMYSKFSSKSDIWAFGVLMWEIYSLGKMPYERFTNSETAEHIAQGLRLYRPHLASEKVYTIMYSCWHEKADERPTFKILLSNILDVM

In the case of `C=C(C)[C@@H]1CC[C@]2(C)CC[C@]3(C)[C@H](CC[C@@H]4[C@@]5(C)CC[C@H](O)C(C)(C)[C@@H]5CC[C@]43C)[C@@H]12` [PCM-0215902], the inhibition at 10 µM was -9.4%. The figure for `Nc1ncnc2c1ncn2C(C=O)OC(C=O)CO` (centres unmarked) [PCM-0215903] is 0.8%. As to `CCc1ccc(-c2nc(CSCC(=O)NCCc3ccccc3)c(C)o2)cc1` [PCM-0215904], the inhibition at 10 µM was -4.6%. With `COc1ccc(S(=O)(=O)Nc2cc(-c3c(O)ccc4ccccc34)c(O)c3ccccc23)cc1` [PCM-0215905], the inhibition at 10 µM is 86.5%.

`O=C(/C=C/c1cccnc1)c1ccncc1` [PCM-0215906]: the inhibition at 10 µM was -6.9%.

Turning to `Cc1ccn[nH]1` [PCM-0215907], the inhibition at 10 µM was 4.6%.

Take `Cc1cc(C)n(C)n1` [PCM-0215908]: the inhibition at 10 µM was -6.9%. Turning to `C=C1CCOC1=O` [PCM-0215909], the inhibition at 10 µM is 0.8%.

As for `C=CCc1cc(OC)c(OC)c(OC)c1` [PCM-0215912], the inhibition at 10 µM is 3.1%. The figure for `C/C(=C\CO)CCC[C@H](C)CCC[C@H](C)CCCC(C)C` [PCM-0215913] is 3.9%; for `CC(C)=CCC/C(C)=C/C=O` [PCM-0215914] it is -17%; for `CCCCOCc1ccc(O)c(OC)c1` [PCM-0215915] it is -15.6%. On to `CC1=C[C@H](O)CC(C)(C)[C@H]1/C=C/C(C)=C/C=C/C(C)=C/C=C/C=C(C)/C=C/C=C(C)/C=C/C1=C(C)C[C@@H](O)CC1(C)C` [PCM-0215916], for which the inhibition at 10 µM came to 0.8%. As to `CC12CCC(CC1)C(C)(C)O2` [PCM-0215918], the inhibition at 10 µM came to 11%.

Take `COC(=O)c1ccccc1O` [PCM-0215919]: the inhibition at 10 µM is -10.9%. Consider `CC(=O)c1ccc(C)cc1O` [PCM-0215921], for which the inhibition at 10 µM is -6.9%. Take `COc1cc2c3c(c1OC)-c1ccccc1C[C@H]3N(C)CC2` [PCM-0215922]: the inhibition at 10 µM was -12.8%. To `O=C1C2=C(CCN(Cc3ccccc3)C2)N2CCN=C2N1Cc1ccc(C(F)(F)F)cc1` [PCM-0215923] belongs 2.3%; to `CC(=O)OC(C)C(C)C(=O)OC[C@@]12[C@H]3C[C@]4(C)C(=CC[C@@H]5[C@@]6(C)CC[C@H](O[C@@H]7O[C@H](C(=O)O)[C@@H](O[C@@H]8O[C@H](CO)[C@@H](O)[C@H](O)[C@H]8O)[C@H](O)[C@H]7O[C@@H]7OC[C@@H](O)[C@H](O)[C@H]7O)[C@@](C)(CO)[C@@H]6CC[C@]54C)[C@@H]1CC(C)(C)[C@H](O3)[C@@H]2O` (some centres unmarked) [PCM-0215924], 5.1%; to `Cc1ccc(C(C)C)cc1O` [PCM-0215926], -21.4%. Turning to `CC[C@H](C)[C@H](N)C(=O)O` [PCM-0215927], the inhibition at 10 µM stood at 7.7%.

For the compound `C=CCS[S+]([O-])CC=C` (centres unmarked) [PCM-0215928], the inhibition at 10 µM is -21%. The figure for `CC1CCCCCCCCCCCCC(=O)C1` (centres unmarked) [PCM-0215929] is 0.7%; for `CCCCCCCCCC(C)=O` [PCM-0215930] it is 10.1%. `Oc1cc(O)c2c(c1)OC(c1ccc(O)c(O)c1)C(OC1(c3ccc(O)c(O)c3)Oc3cc(O)cc(O)c3C(O)C1O)C2` (centres unmarked) [PCM-0215931]: the inhibition at 10 µM was determined as 85.7%. In the case of `CC(=O)O[C@@H]1C[C@@H]2CC[C@@]1(C)C2(C)C` [PCM-0215932], the inhibition at 10 µM was -21.4%. Regarding `C[C@@H](c1ccc2nccn2c1)n1nnc2ncc(-c3cnn(C)c3)nc21` [PCM-0215934], the inhibition at 10 µM is -9.3%.

As for `CCCCCCCCCCCCOC(=O)CS(=O)(=O)O` [PCM-0215935], the inhibition at 10 µM is -12.8%. On to `O=C(CCCCCCC(=O)N/N=C/c1ccc(N(c2ccccc2)c2ccccc2)cc1)NO` [PCM-0215937], for which the inhibition at 10 µM stood at 15.4%. To `O=c1c(N=Nc2nccs2)c(-c2ccccc2)[nH]n1-c1nc(-c2ccccc2)cs1` [PCM-0215938] belongs 98.1%; to `O=C(Nc1ccc(O)c(C(=O)O)c1)c1cccc(NC(=O)c2ccco2)c1` [PCM-0215939], -8.5%. Take `O=P(O)(O)OC1C(OP(=O)(O)O)C(OP(=O)(O)O)C(OP(=O)(O)O)C(OP(=O)(O)O)C1OP(=O)(O)O` (centres unmarked) [PCM-0215940]: the inhibition at 10 µM turned out to be 21.3%. The figure for `NC(=O)NCCC[C@H](N)C(=O)O` [PCM-0215941] is -17.9%; for `C=CC(=O)Nc1cc(N2CCN(CC)CC2)ccc1Nc1cc(N(C)C(=O)Nc2c(Cl)c(OC)cc(OC)c2Cl)ncn1` [PCM-0215942] it is 19.3%; for `C/C=C(/C)C(=O)OC(=O)/C(C)=C\C` [PCM-0215943] it is -8.6%. As to `CC(=O)Oc1c(C)c(C)c2c(c1C)CC[C@@](C)(CCC[C@H](C)CCC[C@H](C)CCCC(C)C)O2` [PCM-0215944], the inhibition at 10 µM amounted to 0%. The figure for `Cc1cc2nc3c(=O)[nH]c(=O)nc-3n(C[C@H](O)[C@H](O)[C@H](O)COP(=O)(O)O)c2cc1C` [PCM-0215946] is 3.4%; for `COc1ccc(C[C@@H]2c3cc(Oc4cc(C[C@@H]5c6cc(OC)c(OC)cc6CCN5C)ccc4O)c(OC)cc3CCN2C)cc1` [PCM-0215948] it is 4.6%. The figure for `Cc1ccc(C(C)C)c(O)c1` [PCM-0215949] is 23.2%. With `CCCCCCCCCCCCCCCCCCCCCCCCCCCCO` [PCM-0215950], the inhibition at 10 µM was -11.1%. The figure for `CCCn1c(NC(=O)c2cccc(C(N)=O)c2)nc2ccccc21` [PCM-0215951] is -12.4%. Consider `O=S(=O)(c1ccc2c(c1)C(=NO)c1cc(S(=O)(=O)N3CCCCC3)ccc1-2)N1CCCCC1` [PCM-0215952], for which the inhibition at 10 µM is -18.5%.

Regarding `Cc1nc2cc(F)c(F)cc2n1-c1cncc(Nc2ccc(C(F)(F)F)cc2)n1` [PCM-0215953], the inhibition at 10 µM was -6.2%.

As for `Cc1ccc(NC(=O)Nc2cc(-c3ccccc3-c3nn[nH]n3)ccc2N(CC(C)C)CC(C)C)cc1` [PCM-0215955], the inhibition at 10 µM was found to be 72.6%. To `C=CCSC[C@H](N)C(=O)O` [PCM-0215956] belongs 3.4%; to `O=C1O[C@H]([C@H](O)CO)C(O)=C1O` [PCM-0215957], 1.5%; to `CSC[C@H](N)C(=O)O` [PCM-0215958], 2.6%. To `CN(CC(=O)O)C(N)=NP(=O)(O)O` [PCM-0215959] belongs -5.1%. As to `Nc1ncnc2c1ccn2[C@@H]1O[C@H]([C@H](O)c2ccccc2)[C@@H](O)[C@H]1O` [PCM-0215960], the inhibition at 10 µM came out at 13.1%. In the case of `CC(C)n1c([C@H](C)Nc2ncnc(N)c2C#N)cc2cccc(-c3ccc(=O)n(C)c3)c2c1=O` [PCM-0215961], the inhibition at 10 µM was -11.6%. As for `O=C(/C=C/c1ccccc1)OCc1ccccc1` [PCM-0215962], the inhibition at 10 µM was 6.9%. On to `CCN(CC)c1ccc2cc(-c3nc4ccccc4s3)c(=O)oc2c1` [PCM-0215963], for which the inhibition at 10 µM was -5.1%. The figure for `CC1(C)CCC[C@]2(C)[C@H]3CCO[C@]3(C)CC[C@@H]12` [PCM-0215965] is 15.4%.

Consider `O=C(/C=C/c1ccc(O)cc1)C1=C(O)[C@](O)([C@@H]2O[C@H](CO)[C@@H](O)[C@H](O)[C@H]2O)C(O)=C(/C=C2/C(=O)C(C(=O)/C=C/c3ccc(O)cc3)=C(O)[C@@](O)([C@@H]3O[C@H](CO)[C@@H](O)[C@H](O)[C@H]3O)C2=O)C1=O` [PCM-0215966], for which the inhibition at 10 µM is -1.5%. On to `CCc1c2c(nc3ccccc13)-c1cc3c(c(=O)n1C2)COC(=O)[C@]3(O)CC` [PCM-0215967], for which the inhibition at 10 µM is -20.8%. As to `OC[C@H]1O[C@H](Oc2ccc(O)cc2)[C@H](O)[C@@H](O)[C@@H]1O` [PCM-0215968], the inhibition at 10 µM is 4.6%. `CC[C@H]1CN2CC[C@H]1C[C@H]2[C@H](O)c1ccnc2ccc(OC)cc12` [PCM-0215969]: the inhibition at 10 µM is -13.1%. The figure for `O=C1O[C@H]([C@@H](O)CO)C(O)=C1OP(=O)(O)O` [PCM-0215970] is -4.3%; for `CO[C@H]1C[C@H](O[C@H]2[C@H](C)O[C@@H](O[C@@H]3/C(C)=C/C[C@@H]4C[C@@H](C[C@]5(C=C[C@H](C)[C@@H](C6CCCCC6)O5)O4)OC(=O)[C@@H]4C=C(C)[C@@H](O)[C@H]5OC/C(=C\C=C\[C@@H]3C)[C@]54O)C[C@@H]2OC)O[C@@H](C)[C@@H]1O` [PCM-0215971] it is 44%. To `C=CC(=O)N1C[C@H](Nc2ncnc3[nH]ccc23)CC[C@@H]1C` [PCM-0215972] belongs 95%; to `CCCOC(=O)c1cc(O)c(O)c(O)c1` [PCM-0215973], 11.6%.

In the case of `COc1ccc(C(=O)O)c(O)c1` [PCM-0215974], the inhibition at 10 µM was 2.3%.

As for `COc1ccc(C(=O)O)cc1O` [PCM-0215975], the inhibition at 10 µM is -13.9%. The figure for `Oc1ccc2ccccc2c1N=Nc1ccc(N=Nc2ccccc2)cc1` [PCM-0215976] is -3.1%; for `CC(C)C1=CC2=CC[C@@H]3[C@](C)(CCC[C@@]3(C)C(=O)O)[C@H]2CC1` [PCM-0215977] it is -9.3%; for `O=C(O)CCCCCCCC(O)C(O)CCCCCCO` (centres unmarked) [PCM-0215978] it is -13.1%. To `CCCCCCCCCC[C@H](C(=O)O)[C@]1(C(=O)O)CCC(=O)O1` [PCM-0215979] belongs 17.8%. In the case of `OC1OC[C@@H](O)[C@@H](O)[C@@H]1O` (some centres unmarked) [PCM-0215980], the inhibition at 10 µM is 10.8%. Regarding `Cc1cc(N2CCCCC2)nc2ccccc12` [PCM-0215982], the inhibition at 10 µM is 10%. To `C[C@H]1c2cccc(O)c2C(O)=C2C(=O)[C@]3(O)C(O)=C(C(N)=O)C(=O)[C@@H](N(C)C)[C@@H]3[C@@H](O)[C@@H]21` [PCM-0215985] belongs -21.6%. To `CCc1cc(Nc2nc(-c3ccc(-n4cnc(C)c4)c(F)c3)cs2)c(C)cc1C` [PCM-0215986] belongs 10%; to `CCCCCCCCCCCCCCCCOc1nc2ccc(C)cc2c(=O)o1` [PCM-0215987], -28.9%; to `CCCc1cc(C)[nH]c(=O)c1CNC(=O)c1cc(-c2ccc(N3CCN(C)CC3)nc2)nc2c1cnn2C(C)C` [PCM-0215988], 15.4%. The figure for `CCOC(=O)N1CCC(CN(Cc2ccc(Cl)cc2)Cc2ccc([N+](=O)[O-])s2)C1` (centres unmarked) [PCM-0215989] is 20.1%.
